Earlier results as cited in patent US9827234B1, “Dose-dumping resistant controlled release dosage form” (OSMOTICA KERESKEDELMI ES SZOLGALTATO KFT, priority 2017, dated 2017).

How the values were obtained:
[1] = 5 mg 3× daily, rapid release tablet

SMILES: COC(=O)C(c1ccccc1)C1CCCCN1 (centres unmarked) [Methylphenidate, methyl 2-phenyl-2-(piperidin-2-yl)acetate]
- Cmax [1]: 4.2 ± 1.0 ng/mL
- Tmax [1]: 6.5 ± 1.8 h
- T½ [1]: 3.0 ± 0.5 h
- enhance the bioavailability of MPH (consuming alcohol (ethanol), Patrick et al. 2007): up to 40%
- plasma half-life (in vivo): 2 to 3 h
